Measured values published in PMC5972072 (Bioorganic chemistry, 2018).
pIC50: −log10 of the molar value. Entries after “also recorded” stand apart in the source; their conditions may differ.

Experiments:
[1] = system: A375 cells; test: Antiproliferative activity, CellTiter-Blue viability; format: cell-based; conditions: A375, 10 μM, 72 h
[2] = system: HCT116 cells; test: as above; format: cell-based; conditions: for antiproliferative activity (in words): HCT116, 10 μM, 72 h; for pIC50: Homo sapiens, HCT-116, 72 h, read-out: IC50 against HCT116
[3] = target: T1, haspin kinase (Homo sapiens, UniProt Q8TF76); test: Haspin kinase activity, ADP-Glo kinase assay, single concentration; format: biochemical; conditions: for haspin inhibition (in words): 100 nM compound, 3 h, Figure 2; for inhibition at 0.1 µM: read-out: inhibition of haspin's enzymatic activity
T1 sequence (Q8TF76 1-798): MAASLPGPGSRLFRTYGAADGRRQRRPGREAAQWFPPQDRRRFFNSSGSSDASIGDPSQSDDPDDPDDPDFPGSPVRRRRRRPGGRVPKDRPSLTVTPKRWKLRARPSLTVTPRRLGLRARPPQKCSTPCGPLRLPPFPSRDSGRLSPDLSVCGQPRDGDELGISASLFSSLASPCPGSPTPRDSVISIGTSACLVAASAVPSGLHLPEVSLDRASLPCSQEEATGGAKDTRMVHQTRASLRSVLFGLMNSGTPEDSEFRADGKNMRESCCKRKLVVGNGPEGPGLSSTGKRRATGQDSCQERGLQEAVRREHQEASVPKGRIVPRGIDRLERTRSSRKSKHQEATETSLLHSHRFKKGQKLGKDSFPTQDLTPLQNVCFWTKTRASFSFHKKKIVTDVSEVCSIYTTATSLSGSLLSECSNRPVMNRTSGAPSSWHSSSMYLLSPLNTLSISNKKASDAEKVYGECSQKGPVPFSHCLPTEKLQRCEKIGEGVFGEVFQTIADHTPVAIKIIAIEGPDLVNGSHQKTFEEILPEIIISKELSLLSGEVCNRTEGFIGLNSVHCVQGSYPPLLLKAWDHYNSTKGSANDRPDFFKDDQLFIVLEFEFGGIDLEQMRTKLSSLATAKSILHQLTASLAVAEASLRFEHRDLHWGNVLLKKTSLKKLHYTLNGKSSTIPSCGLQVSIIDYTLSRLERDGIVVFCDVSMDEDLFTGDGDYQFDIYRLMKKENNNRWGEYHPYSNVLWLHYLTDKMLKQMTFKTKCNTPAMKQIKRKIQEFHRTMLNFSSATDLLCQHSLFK

[4] = system: HeLa cells; test: Antiproliferative activity, CellTiter-Blue viability; format: cell-based; conditions: 72 h; for antiproliferative activity (in words): 10 μM; for pIC50: Homo sapiens, read-out: IC50 against HeLa
[5] = system: HCT116 and HeLa cells; conditions: HCT116 and HeLa cells ref 13; cited from earlier work
[6] = target: T1, haspin kinase; test: Haspin dose-response
[7] = system: caspase 3/7 in HCT116 cells; test: Caspase 3/7 fluorescence assay; conditions: HCT116, after 72 hours, normalized to DMSO
[8] = system: HCT116 cells; test: Cell cycle analysis, propidium iodide staining with flow cytometry; format: cell-based

Row | SMILES | antiproliferative activity (in words) [1] | antiproliferative activity (in words) [2] | haspin inhibition (in words) [3] | antiproliferative activity (in words) [4] | also measured
1 | Oc1ccc(-c2nc3ccc4[nH]ncc4c3c3c2CCCC3)cn1 [Compound 12, 5-(8,9,10,11-Tetrahydro-3H-pyrazolo[4,3-a]phenanthridin-7-yl)pyridin-2-ol] | moderate antiproliferative activity | moderate antiproliferative activity | poor haspin inhibitor | moderate antiproliferative activity | 
2 | Oc1ccc(-c2nc3ccc4[nH]ncc4c3c3c2CCCC3)cc1F [Compound 8, 2-Fluoro-4-(8,9,10,11-tetrahydro-3H-pyrazolo[4,3-a]phenanthridin-7-yl)phenol] |  |  | less active against haspin than HSD972 |  | 
3 | CCCNc1ccc2ncc(-c3ccc4[nH]ncc4c3)n2n1 [CHR-6494] |  |  |  |  | apoptosis (in words) [5]: apoptosis; cell cycle arrest (in words) [5]: G2/M cell cycle arrest
4 | Oc1cc(F)c(-c2nc3ccc4[nH]ncc4c3c3c2CCCC3)cc1F [Compound 10, 2,5-Difluoro-4-(8,9,10,11-tetrahydro-3H-pyrazolo[4,3-a]phenanthridin-7-yl)phenol] |  |  | decreased potency |  | 
5 | Oc1ccc(-c2nc3ccc4[nH]ncc4c3c3c2CCCC3)cc1 [Compound 1, 4-(8,9,10,11-Tetrahydro-3H-pyrazolo[4,3-a]phenanthridin-7-yl)phenol] | did not have good anticancer activities | did not have good anticancer activities | good haspin inhibitor | did not have good anticancer activities | 
6 | Nc1ccc(-c2nc3ccc4[nH]ncc4c3c3c2CCCC3)cn1 [Compound 17, 5-(8,9,10,11-Tetrahydro-3H-pyrazolo[4,3-a]phenanthridin-7-yl)pyridin-2-amine] |  |  | did not affect haspin inhibition |  | inhibition at 0.1 µM [3]: > 90%; pIC50 [6]: 7.35
7 | Oc1ccc(-c2nc3ccc4cn[nH]c4c3c3c2CCCC3)cc1 [Compound 20, 4-(8,9,10,11-Tetrahydro-1H-pyrazolo[3,4-a]phenanthridin-7-yl)phenol] |  |  | not as active against haspin than compound 1 |  | 
8 | Oc1ccc(-c2nc3ccc4[nH]ncc4c3c3c2CCCC3)c(F)c1F [Compound 21, 2,3-Difluoro-4-(8,9,10,11-tetrahydro-3H-pyrazolo[4,3-a]phenanthridin-7-yl)phenol] |  |  | decreased potency |  | 
9 | N#Cc1n[nH]c2ccc3nc(-c4ccc(O)cc4)c4c(c3c12)CCCC4 [Compound 7, 7-(4-Hydroxyphenyl)-8,9,10,11-tetrahydro-3H-pyrazolo[4,3-a]phenanthridine-1-carbonitrile] | performed poorly | performed poorly | no inhibitory activity; also recorded: did not inhibit haspin; also recorded: poor haspin inhibitors | performed poorly | 
10 | Oc1ccc(-c2nc3c(ccc4cn[nH]c43)c3c2CCCC3)cc1 [Compound 19, 4-(6,7,8,9-Tetrahydro-3H-pyrazolo[4,3-c]phenanthridin-5-yl)phenol] | performed poorly | performed poorly | not as active against haspin than compound 1; also recorded: poor haspin inhibitors | performed poorly | 
11 | Nc1ncc(-c2nc3ccc4[nH]ncc4c3c3c2CCCC3)cn1 [Compound 18, 5-(8,9,10,11-Tetrahydro-3H-pyrazolo[4,3-a]phenanthridin-7-yl)pyrimidin-2-amine] |  |  | slightly less active against haspin |  | 
12 | Nc1ccc(-c2nc3ccc4[nH]ncc4c3c3c2CCCC3)cc1 [HSD929, 4-(8,9,10,11-Tetrahydro-3H-pyrazolo[4,3-a]phenanthridin-7-yl)aniline] |  | potent antiproliferative activities | potent inhibitors of haspin | potent antiproliferative activities | pIC50 [2]: 5.77; haspin inhibition (in words) ([3]; listed as 16): did not affect haspin inhibition; inhibition at 0.1 µM [3]: > 90%; pIC50 [6]: 7.21; pIC50 [4]: 5.44
13 | Oc1ccc(-c2nc3ccc4[nH]ncc4c3c3c2CCCC3)c(F)c1 [HSD972, 3-Fluoro-4-(8,9,10,11-tetrahydro-3H-pyrazolo[4,3-a]phenanthridin-7-yl)phenol] |  | potent antiproliferative activities |  | potent antiproliferative activities | caspase 3/7 activity (in words) [7]: increased the activity of caspase 3/7; pIC50 [2]: 5.57; cells in G2 phase ([8]; HCT116, 13.5 μM (5X IC50), 24 h, DMSO 16.2%): 59.3%; effect on cell cycle distribution (in words) ([8]; HCT116, 5X IC50, 24 h, compared to DMSO): population of cells in the G2/M phase was higher; inhibition at 0.1 µM [3]: > 90%; pIC50 [4]: 5.32
